Data: ChEMBL document CHEMBL1137644, “Polymyxin B induces lysis of marine pseudoalteromonads” (Antimicrob Agents Chemother, 2007)
Active and inactive are the calls of the source. The calls are words filed in the database; no cut-off is given here. Bridge positions count the residues as written; N and C are the ends. Square brackets hold non-standard residues; d marks the D form. Peptide text beside a SMILES is read from it. Dab = NCC[C@H](N)C(=O)O

Assays:
Assay type in all cases: functional, organism-based
[1] = tested on: Pseudoalteromonas; assay: Antimicrobial activity against Pseudoalteromonas ER72M2 up to 50 ug/ml
[2] = tested on: Pseudoalteromonas; assay: Induction of cell lysis in Pseudoalteromonas ER72M2 assessed as cytoplasmic membrane integrity at 50 ug/ml
[3] = tested on: Pseudoalteromonas; assay: Induction of cell lysis in Pseudoalteromonas ER72M2 assessed as outer membrane permeability at 50 ug/ml
[4] = tested on: Pseudoalteromonas; assay: Induction of cell lysis in Pseudoalteromonas ER72M2 assessed as permeability across outer membrane at 2 ug/ml
[5] = tested on: Pseudoalteromonas; assay: Induction of cell lysis in Pseudoalteromonas ER72M2 assessed as decipation of K+ gradient on cytoplasmic membrane treated at 50 ug/ml after 30 mins addition of Mg2+ and Ca2+
[6] = tested on: Pseudoalteromonas; assay: Induction of cell lysis in Pseudoalteromonas ER72M2 assessed as increase in accumulation of phenyldicarbaundecaborane at 2 ug/ml
[7] = tested on: Pseudoalteromonas; assay: Induction of cell lysis in Pseudoalteromonas ER72M2 assessed as increase in alkalization of membrane treated at 50 ug/ml after 30 mins incubation
[8] = tested on: Pseudoalteromonas; assay: Antimicrobial activity against Pseudoalteromonas ER72M2 after 50 hrs in presence of Ca2+ cation by epsilometer agar diffusion method
[9] = tested on: Pseudoalteromonas; assay: Induction of cell lysis in Pseudoalteromonas ER72M2 assessed as decrease in culture turbidity treated at 50 ug/ml after 30 mins addition of Ca2+, Mg2+
[10] = tested on: Pseudoalteromonas; assay: Induction of cell lysis in Pseudoalteromonas ER72M2 assessed as accumulation of phenyldicarbaundecaborane treated at 50 ug/ml after 30 mins incubation
[11] = tested on: Pseudoalteromonas; assay: Induction of cell lysis in Pseudoalteromonas ER72M2 assessed as depolarization of cytoplasmic membrane treated at 50 ug/ml after 30 mins addition of Mg2+ and Ca2+
[12] = tested on: Pseudoalteromonas; assay: Induction of cell lysis in gramicidin D-deplolarized Pseudoalteromonas ER72M2 assessed as decrease in culture turbidity at 2 ug/ml
[13] = tested on: Pseudoalteromonas; assay: Induction of cell lysis in Pseudoalteromonas ER72M2 assessed as binding of phenyldicarbaundecaborane at 3 ug/ml in presence of gramicidin D
[14] = tested on: Pseudoalteromonas; assay: Induction of cell lysis in Pseudoalteromonas ER72M2 assessed as leakage of intracellular K+ at 3 ug/ml in presence of gramicidin D
[15] = tested on: Pseudoalteromonas; assay: Induction of cell lysis in Pseudoalteromonas ER72M2 assessed as extracellular K+ concentration treated at 50 ug/ml after 30 mins addition of Mg2+ and Ca2+
[16] = tested on: Pseudoalteromonas; assay: Induction of cell lysis in Pseudoalteromonas ER72M2 assessed as decrease in culture turbidity at 2 ug/ml in presence of gramicidin D
[17] = tested on: Pseudoalteromonas; assay: Induction of cell lysis in Pseudoalteromonas ER72M2 assessed as decrease in culture turbidity treated at 50 ug/ml after 30 mins addition of Ca2+
[18] = tested on: Pseudoalteromonas; assay: Induction of cell lysis in Pseudoalteromonas ER72M2 at 10 ug/ml in presence of arsenate
[19] = tested on: Pseudoalteromonas; assay: Induction of cell lysis in Pseudoalteromonas ER72M2 assessed as accumulation of tetraphenylphonium treated at 50 ug/ml after 30 mins addition of Mg2+ and Ca2+
[20] = tested on: Pseudoalteromonas; assay: Induction of cell lysis in Pseudoalteromonas ER72M2 assessed as complete lysis treated at 50 ug/ml after 30 mins addition of Ca2+, Mg2+
[21] = tested on: Escherichia coli; assay: Induction of cell lysis in Escherichia coli HMS174 assessed as decrease in culture turbidity at 50 ug/ml
[22] = tested on: Pseudoalteromonas; assay: Induction of cell lysis in Pseudoalteromonas ER72M2 assessed as increase in accumulation of tetraphenylphonium at 2 ug/ml
[23] = tested on: Pseudoalteromonas; assay: Induction of cell lysis in Pseudoalteromonas ER72M2 at 10 ug/ml
[24] = tested on: Pseudoalteromonas; assay: Induction of cell lysis in Pseudoalteromonas ER72M2 assessed as intense membrane alkalization treated at 50 ug/ml after 30 mins addition of Mg2+ and Ca2+
[25] = tested on: Pseudoalteromonas; assay: Induction of cell lysis in Pseudoalteromonas ER72M2 assessed as increase in extracellular concentration of tetraphenylphonium treated at 50 ug/ml after 30 mins incubation
[26] = tested on: Pseudoalteromonas; assay: Induction of cell lysis in Pseudoalteromonas ER72M2 assessed as dipolarization of cytoplasmic membrane treated at 50 ug/ml after 30 mins incubation
[27] = tested on: Pseudoalteromonas; assay: Induction of cell lysis in Pseudoalteromonas ER72M2 assessed as leakage of intracellular K+ treated at 50 ug/ml after 30 mins incubation
[28] = tested on: Pseudoalteromonas; assay: Antimicrobial activity against Pseudoalteromonas ER72M2 after 50 hrs by epsilometer agar diffusion method
[29] = tested on: Pseudoalteromonas; assay: Induction of cell lysis in Pseudoalteromonas ER72M2 assessed as decrease in culture turbidity at 2 ug/ml in presence of nigericin
[30] = tested on: Pseudoalteromonas; assay: Induction of cell lysis in Pseudoalteromonas ER72M2 assessed as depolarization of cytoplasmic membrane at 3 ug/ml in presence of gramicidin D
[31] = tested on: Pseudoalteromonas espejiana; assay: Induction of cell lysis in Pseudoalteromonas espejiana BAL31 assessed as decrease in culture turbidity at 50 ug/ml
[32] = tested on: Pseudoalteromonas; assay: Antimicrobial activity against Pseudoalteromonas ER72M2 assessed as after 50 hrs in presence of Mg2+ and Ca2+ by epsilometer agar diffusion method
[33] = tested on: Pseudoalteromonas; assay: Induction of cell lysis in Pseudoalteromonas ER72M2 assessed as voltage dissipation in presence of KCN
[34] = tested on: Pseudoalteromonas; assay: Antimicrobial activity against Pseudoalteromonas ER72M2 after 50 hrs in presence of Mg2+ cation by epsilometer agar diffusion method
[35] = tested on: Pseudoalteromonas; assay: Induction of cell lysis in Pseudoalteromonas ER72M2 assessed as decrease in culture turbidity
[36] = tested on: Pseudoalteromonas; assay: Induction of cell lysis in Pseudoalteromonas A28 assessed as decrease in culture turbidity at 50 ug/ml
[37] = tested on: Pseudoalteromonas; assay: Induction of cell lysis in Pseudoalteromonas ER72M2 assessed as shrinkage of intracellular volume after 25 mins in presence of divalent cation by light microscopy
[38] = tested on: Pseudoalteromonas; assay: Induction of cell lysis in Pseudoalteromonas ER72M2 assessed as accumulation of phenyldicarbaundecaborane treated at 50 ug/ml after 30 mins addition of Mg2+ and Ca2+
[39] = tested on: Pseudoalteromonas; assay: Induction of cell lysis in Pseudoalteromonas ER72M2 assessed as decrease in culture turbidity treated at 50 ug/ml after 30 mins addition of Mg2+

CC(C)C[C@@H]1NC(=O)[C@@H](Cc2ccccc2)NC(=O)[C@H](CCN)NC(=O)[C@@H](NC(=O)[C@H](CCN)NC(=O)[C@@H](N)[C@@H](C)O)CCNC(=O)[C@H]([C@@H](C)O)NC(=O)[C@H](CCN)NC(=O)[C@H](CCN)NC1=O (H-T[Dab][Dab][Dab][dF]L[Dab][Dab]T; lactam 3-C)
Activity [1]: inactive
Activity [2]: inactive
Activity [3]: Active

POLYMYXIN B
Activity [4]: inactive
Activity [5]: Active
Activity [6]: Active
Activity [7]: Active
MIC [8]: 0.11 µg/mL
Activity [9]: inactive
Activity [10]: Active
Activity [11]: Active
Activity [12]: inactive
Activity [13]: Active
Activity [14]: Active
Activity [15]: Active
Activity [16]: inactive
Activity [17]: Active
Activity [18]: Active
Activity [19]: Active
Activity [20]: inactive
Activity [21]: Active
Activity [22]: Active
Activity [23]: Active
Activity [24]: Active
Activity [25]: Active
Activity [26]: Active
Activity [27]: Active
MIC [28]: 0.33 µg/mL
Activity [29]: Active
Activity [30]: Active
Activity [31]: Active
MIC [32]: 0.42 µg/mL
Activity [33]: Active
MIC [34]: 0.33 µg/mL
Activity [35]: Dose-dependent effect
Activity [36]: Active
Activity [3]: Active
Activity [37]: Active
Activity [38]: Active
Activity [39]: Active
